Laboratory results reported in patent US6355799B1, “Substituted benzene compounds, process for their preparation, and herbicidal and defoliant compositions containing them” (ISK Americas Incorporated, priority 1997, dated 2002).

Columns and labels:
Assay type in all cases: in vivo
[1] = test system: redroot pigweed (Amaranthus retroflexus, AMARE); test: Pre-emerge test, greenhouse herbicide activity screening; conditions: phytotoxicity rating 0-100, 14 days after application
Method in brief: (§1)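 Rating: 0–100 visual injury, 14 DAA. Application: acetone, 187 l/ha, 15–1000 g ai/ha, flat-fan track sprayer with nozzle 40–45 cm above soil or canopy. Post-emerge runs used 0.25% v/v surfactant on 2–3 leaf plants.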

[2] = test system: barnyardgrass (Echinochloa crus-galli, ECHCG); test: as above; conditions: phytotoxicity rating 0-100, 14 days after application
Method in brief: (§2)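 Applied at 15–1000 g ai/ha from acetone in 187 l/ha spray volume. Post-emergence applications included 0.25% v/v non-ionic surfactant and reached plants sown 8–21 days before. Pre-emergence applications were incorporated by surface watering. Efficacy or crop damage was rated on a 0–100 scale after 14 days.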

[3] = test system: green foxtail (Setaria viridis, SETVI); test: as above; conditions: phytotoxicity rating 0-100, 14 days after application
Method in brief: as §2

[4] = test system: ivyleaf morningglory (Ipomoea hederacea, IPOHE); test: as above; conditions: phytotoxicity rating 0-100, 14 days after application
Method in brief: as §2

[5] = test system: johnsongrass (Sorghum halepense, SORHA); test: as above; conditions: phytotoxicity rating 0-100, 14 days after application
Method in brief: as §2

[6] = test system: lambsquarters (Chenopodium album, CHEAL); test: as above; conditions: phytotoxicity rating 0-100, 14 days after application
Method in brief: as §2

[7] = test system: large crabgrass (Digitaria sanguinalis, DIGSA); test: as above; conditions: phytotoxicity rating 0-100, 14 days after application
Method in brief: as §2

[8] = test system: sicklepod (Cassia obtusifolia, CASOB); test: as above; conditions: phytotoxicity rating 0-100, 14 days after application
Method in brief: as §2

[9] = test system: velvetleaf (Abutilon theophrasti, ABUTH); test: as above; conditions: phytotoxicity rating 0-100, 14 days after application
Method in brief: as §2

[10] = test system: field corn (Zea mays L., var. Dekalb 535, CORN); test: Pre-emerge test, crop safety; conditions: crop damage rating 0-100, 14 days after application
Method in brief: as §1

[11] = test system: upland rice (Oryza sp., var. Tebonnet, RICE); test: Pre-emerge test, crop safety; conditions: crop damage rating 0-100, 14 days after application
Method in brief: as §1

[12] = test system: barnyardgrass (Echinochloa crus-galli, ECHCG); test: Post-emerge test, greenhouse herbicide activity screening; conditions: post-emerge, 14 days after application, rating scale 0-100
Method in brief: (§3)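 Herbicidal damage is scored 0 (none) to 100 (complete plant death) two weeks after a simulated field spray. Rates span 15–1000 g ai/ha, delivered in acetone at 187 l/ha. For post-emergence treatments, plants have 2–3 leaves and the spray carries 0.25% v/v non-ionic surfactant.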

[13] = test system: green foxtail (Setaria viridis, SETVI); test: as above; conditions: post-emerge, 14 days after application, rating scale 0-100
Method in brief: as §3

[14] = test system: ivyleaf morningglory (Ipomoea hederacea, IPOHE); test: as above; conditions: post-emerge, 14 days after application, rating scale 0-100
Method in brief: as §3

[15] = test system: johnsongrass (Sorghum halepense, SORHA); test: as above; conditions: post-emerge, 14 days after application, rating scale 0-100
Method in brief: as §3

[16] = test system: lambsquarters (Chenopodium album, CHEAL); test: as above; conditions: post-emerge, 14 days after application, rating scale 0-100
Method in brief: as §3

[17] = test system: large crabgrass (Digitaria sanguinalis, DIGSA); test: as above; conditions: post-emerge, 14 days after application, rating scale 0-100
Method in brief: as §3

[18] = test system: redroot pigweed (Amaranthus retroflexus, AMARE); test: as above; conditions: post-emerge, 14 days after application
Method in brief: as §3

[19] = test system: sicklepod (Cassia obtusifolia, CASOB); test: as above; conditions: post-emerge, 14 days after application, rating scale 0-100
Method in brief: as §3

[20] = test system: velvetleaf (Abutilon theophrasti, ABUTH); test: as above; conditions: post-emerge, 14 days after application, rating scale 0-100
Method in brief: as §3

[21] = test system: field corn (Zea mays L., var. Dekalb 535, CORN); test: Post-emerge test, crop safety; conditions: post-emerge, 14 days after application, rating scale 0-100
Method in brief: as §2

[22] = test system: upland rice (Oryza sp., var. Tebonnet, RICE); test: Post-emerge test, crop safety; conditions: post-emerge, 14 days after application, rating scale 0-100
Method in brief: as §2

## COc1c(Cl)cc(F)c(-n2c(=O)cc(C(F)(F)F)n(C)c2=O)c1NC(=O)OCc1ccccc1[N+](=O)[O-] [4-34]
[1]; 63 g ai/ha
  Pre-emerge Herbicidal Activity AMARE: 100
[1]; 250 g ai/ha
  Pre-emerge Herbicidal Activity AMARE: 100
[2]; 63 g ai/ha
  Pre-emerge Herbicidal Activity ECHCG: 50
[2]; 250 g ai/ha
  Pre-emerge Herbicidal Activity ECHCG: 90
[3]; 63 g ai/ha
  Pre-emerge Herbicidal Activity SETVI: 80
[3]; 250 g ai/ha
  Pre-emerge Herbicidal Activity SETVI: 100
[4]; 63 g ai/ha
  Pre-emerge Herbicidal Activity IPOHE: 30
[4]; 250 g ai/ha
  Pre-emerge Herbicidal Activity IPOHE: 80
[5]; 63 g ai/ha
  Pre-emerge Herbicidal Activity SORHA: 40
[5]; 250 g ai/ha
  Pre-emerge Herbicidal Activity SORHA: 80
[6]; 63 g ai/ha
  Pre-emerge Herbicidal Activity CHEAL: 100
[6]; 250 g ai/ha
  Pre-emerge Herbicidal Activity CHEAL: 100
[7]; 63 g ai/ha
  Pre-emerge Herbicidal Activity DIGSA: 90
[7]; 250 g ai/ha
  Pre-emerge Herbicidal Activity DIGSA: 95
[8]; 63 g ai/ha
  Pre-emerge Herbicidal Activity CASOB: 40
[8]; 250 g ai/ha
  Pre-emerge Herbicidal Activity CASOB: 95
[9]; 63 g ai/ha
  Pre-emerge Herbicidal Activity ABUTH: 100
[9]; 250 g ai/ha
  Pre-emerge Herbicidal Activity ABUTH: 100
[10]; 63 g ai/ha
  Pre-emerge Herbicidal Activity CORN: 10
[10]; 250 g ai/ha
  Pre-emerge Herbicidal Activity CORN: 90
[11]; 63 g ai/ha
  Pre-emerge Herbicidal Activity RICE: 50
[11]; 250 g ai/ha
  Pre-emerge Herbicidal Activity RICE: 95
[12]; 63 g ai/ha
  phytotoxicity rating ECHCG: 20
[12]; 250 g ai/ha
  phytotoxicity rating ECHCG: 50
[13]; 63 g ai/ha
  phytotoxicity rating SETVI: 50
[13]; 250 g ai/ha
  phytotoxicity rating SETVI: 75
[14]; 63 g ai/ha
  phytotoxicity rating IPOHE: 100
[14]; 250 g ai/ha
  phytotoxicity rating IPOHE: 90
[15]; 63 g ai/ha
  phytotoxicity rating SORHA: 30
[15]; 250 g ai/ha
  phytotoxicity rating SORHA: 30
[16]; 63 g ai/ha
  phytotoxicity rating CHEAL: 100
[16]; 250 g ai/ha
  phytotoxicity rating CHEAL: 100
[17]; 63 g ai/ha
  phytotoxicity rating DIGSA: 35
[17]; 250 g ai/ha
  phytotoxicity rating DIGSA: 60
[18]; 63 g ai/ha, rating scale 0-100 (0 no damage, 100 complete death)
  phytotoxicity rating AMARE: 100
[18]; 250 g ai/ha, rating scale 0-100
  phytotoxicity rating AMARE: 100
[19]; 63 g ai/ha
  phytotoxicity rating CASOB: 90
[19]; 250 g ai/ha
  phytotoxicity rating CASOB: 100
[20]; 63 g ai/ha
  phytotoxicity rating ABUTH: 100
[20]; 250 g ai/ha
  phytotoxicity rating ABUTH: 100
[21]; 63 g ai/ha
  phytotoxicity rating CORN (crop damage): 25
[21]; 250 g ai/ha
  phytotoxicity rating CORN (crop damage): 50
[22]; 63 g ai/ha
  phytotoxicity rating RICE (crop damage): 40
[22]; 250 g ai/ha
  phytotoxicity rating RICE (crop damage): 80
